Columns and labels:
Assay in all cases: 3H GABA uptake, corrected iPSC astrocytes transfected with GAT-1^YFP cDNA
Format in all cases: cell-based
GAT-1 A288V = target: T1, GAT-1 A288V (Rattus norvegicus, UniProt P23978, A288V); settings: 2 mM PBA, 24 hrs
T1 construct: The coding region of rGAT-1 was inserted into pEYFP-C1 (Clontech, Palo Alto, CA); expressed in transfected cells; host or cells: HEK293T cells (A4); astrocytes from corrected human iPSCs (A24)
Experimental: (§1) Live images of human neural progenitor cells (NPCs), astrocytes and GABAergic inhibitory neurons differentiated from the human induced pluripotent stem cells (iPSCs) on the day of experiment. […] The DMSO treated corrected or patient cells was taken as 1. […] GABA flux was measured after 30 min transport at room temperature. The influx of GABA, expressed in pmol/μg protein/min, was averaged from duplicates for each condition and for each transfection. The average counting was DMSO treated condition taken as 1. In FIG. 5B, FIG. 5D and FIG. 5F, 966 stands for CI-966 (50 μM) and 711 stands for NNC-711 (35 μM) that was applied 30 min to the astrocytes transfected with the wildtype GAT-1^YFP before preincubation and removed during preincubation. In FIGS. 5B and D, ***p<0.001 vs. corrected DMSO treated. § § <0.01, § § § p<0.001 vs. patient DMSO treated. […] In FIGS. 5B-E, n=4-8 batches of cells. In FIG. 5F, n=4-5 different transfections). Unpaired t test was used for FIG. 5C and FIG. 5E. One-way analysis of variance followed by a Dunnett post hoc multiple comparison test was used in FIG. 5B, FIG. 5D and FIG. 5F. Values were expressed as mean±S.E.M.).
(§2) The plasmid cDNA encoding enhanced yellow fluorescent protein (EYFP)-tagged rat GAT-1 has been previously described. The coding region of rGAT-1 was inserted into pEYFP-C1 (Clontech, Palo Alto, CA). QuikChange Site-directed Mutagenesis kit was utilized to introduce the GAT-1 variants into a wildtype GAT-1 plasmid. The product was then amplified via polymerase chain reaction, transformed using DH5a competent cells, and plated. A clone was chosen and grown overnight. All the GAT-1 variants were confirmed by DNA sequencing. Both the wildtype and the variant cDNAs were prepared with Qiagen Maxiprep kit.
(§3) Astrocytes were differentiated starting from day 5 of NPC passage 1 with the astrocyte culture medium from Sciencell (catalog 1801) following the protocol as previously described. The cell culture medium was refreshed every other day and the cells were passaged at ˜70% confluency. About 1.5×10^5 cells were seeded in each 35 mm dish or each well in 6-well plate when passaging. The differentiation was continuous until the day 30 and all the astrocytes used in experiments in this study were at day 30 after differentiation.
(§4) Briefly, cells were cultured in […] dishes for 3 days before the GABA uptake experiment in DMEM with 10% fetal bovine serum and 1% penicillin/streptomycin. The cells were then transfected with equal amounts of the wildtype or the mutant GAT-1 cDNAs (1 μg) for each condition at 24 hrs or 48 hrs after plating. GABA uptake assay was carried out 48 hrs after transfection. The cells were incubated with preincubation solution for 15 min and then incubated with preincubation solution containing 1 μci/mL 3H GABA and 10 μM unlabeled GABA for 30 min at room temperature. After washing, the cells were lysed with 0.25 N NaOH for 1 hr. Glacial acetic acid was added, and lysates were then determined on a liquid scintillator with QuantaSmart. The flux of GABA (pmol/μg/min) was averaged with at least triplets for each condition at each transfection. The average counting was taken as n=1. The untransfected condition was taken as a baseline that was subtracted from both the wildtype and the mutant conditions. The pmol/μg/min in the mutant was then normalized to the wildtype from each experiment, which was arbitrarily taken as 100%. The protocols for GABA reuptake assay in cultured mouse astrocytes, neuron or iPSC derived cells were modified from the GABA uptake protocol on HEK 293T cells. GAT-1 inhibitors CL-966 and NNC-711 were applied each time to make sure the radioactive counts were specific.
(§5) The working solution was stored at 4° C.
(§6) Wildtype or the mutant GAT-1^YFP were transfected (1 μg cDNAs per 35 mm^2 dishes) in the astrocytes derived from the corrected iPSCs for 48 hrs. […]

GAT-1 D410E = target: T2, GAT-1 D410E (Rattus norvegicus, UniProt P23978, D410E); settings: 2 mM PBA, 24 hrs
T2 construct: The coding region of rGAT-1 was inserted into pEYFP-C1 (Clontech, Palo Alto, CA); expressed in transfected cells; host or cells: HEK293T cells (A7); astrocytes from corrected human iPSCs (A27)
Experimental: as §1, §2, §3, §4, §5, §6

GAT-1 G362R = target: T3, GAT-1 G362R (Rattus norvegicus, UniProt P23978, G362R); settings: 2 mM PBA, 24 hrs
T3 construct: The coding region of rGAT-1 was inserted into pEYFP-C1 (Clontech, Palo Alto, CA); expressed in transfected cells; host or cells: human astrocytes differentiated from CRISPR-corrected patient iPSCs
Experimental: as §1, §2, §3, §4, §5, §6

GAT-1 V125M = target: T4, GAT-1 V125M (Rattus norvegicus, UniProt P23978, V125M); settings: 2 mM PBA, 24 hrs
T4 construct: The coding region of rGAT-1 was inserted into pEYFP-C1 (Clontech, Palo Alto, CA); expressed in transfected cells; host or cells: HEK293T cells (A3); astrocytes from corrected human iPSCs (A23)
Experimental: as §1, §2, §3, §4, §5, §6

GAT-1(W495X) = target: T5, GAT-1(W495X) (Rattus norvegicus, UniProt P23978); settings: 2 mM PBA, 24 hrs
T5 construct: The coding region of rGAT-1 was inserted into pEYFP-C1 (Clontech, Palo Alto, CA); expressed in transfected cells; host or cells: human astrocytes differentiated from CRISPR-corrected patient iPSCs
Experimental: as §1, §2, §3, §4, §5, §6

wildtype GAT-1 = target: T6, wildtype GAT-1 (Rattus norvegicus, UniProt P23978); settings: corrected astrocytes transfected with wt; 2 mM PBA, 24 hrs
T6 construct: The coding region of rGAT-1 was inserted into pEYFP-C1 (Clontech, Palo Alto, CA); expressed in transfected cells; host or cells: HEK293T cells (A1); astrocytes from corrected human iPSCs (A21)
Experimental: as §1, §2, §3, §4, §5, §6

GABA uptake normalized to its DMSO treated (GAT-1 A288V): 1.204±0.031
GABA uptake normalized to its DMSO treated (GAT-1 D410E): 1.21±0.022
GABA uptake normalized to its DMSO treated (GAT-1 G362R): 1.25±0.023
GABA uptake normalized to its DMSO treated (GAT-1 V125M): 1.285±0.018
GABA uptake normalized to its DMSO treated (GAT-1(W495X)): 1.45±0.04
GABA uptake normalized to its DMSO treated (wildtype GAT-1): 1.188±0.075
Compound: O=C(O)CCCc1ccccc1 [PBA, 4-phenylbutyric acid]
